Series [1] can be described thus: physchem. To be noted: buffer, pH 6.
For series [2], the species on record is Oryctolagus cuniculus. The experiment in a line: tissue or blood. The following applies: Aorta.
Description: Vasorelaxant activity against methoxiamin-induced contraction in rabbit aortic ring
The target in series [3] is Carbonic anhydrase 1 (Homo sapiens, UniProt P00915). The experiment in a line: Inhibition of human carbonic anhydrase 1 up to 100 uM by CO2 hydrase stopped flow assay.
In series [4] the target is Carbonic anhydrase 2 (Homo sapiens, UniProt P00918). Kind of series: Inhibition of human carbonic anhydrase 2 up to 100 uM by CO2 hydrase stopped flow assay.
For series [5], the target named is Carbonic anhydrase 4 (Homo sapiens, UniProt P22748). Kind of series: Inhibition of human carbonic anhydrase 4 up to 100 uM by CO2 hydrase stopped flow assay.
Carbonic anhydrase 4, sequence (P22748 whole entry): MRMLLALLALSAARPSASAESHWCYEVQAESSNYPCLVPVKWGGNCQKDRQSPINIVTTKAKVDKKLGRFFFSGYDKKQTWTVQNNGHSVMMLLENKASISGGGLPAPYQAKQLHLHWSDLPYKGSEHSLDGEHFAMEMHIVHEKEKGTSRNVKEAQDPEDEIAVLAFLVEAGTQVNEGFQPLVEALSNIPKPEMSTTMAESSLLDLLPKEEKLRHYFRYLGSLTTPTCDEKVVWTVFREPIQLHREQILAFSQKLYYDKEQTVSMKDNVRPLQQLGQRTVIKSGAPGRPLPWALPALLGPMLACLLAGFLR

In brackets after ≈: the same amount, converted by molar mass. Where only a bound is given, the exact number is not on record here.

Carbonic anhydrase 1, sequence (P00915 whole entry): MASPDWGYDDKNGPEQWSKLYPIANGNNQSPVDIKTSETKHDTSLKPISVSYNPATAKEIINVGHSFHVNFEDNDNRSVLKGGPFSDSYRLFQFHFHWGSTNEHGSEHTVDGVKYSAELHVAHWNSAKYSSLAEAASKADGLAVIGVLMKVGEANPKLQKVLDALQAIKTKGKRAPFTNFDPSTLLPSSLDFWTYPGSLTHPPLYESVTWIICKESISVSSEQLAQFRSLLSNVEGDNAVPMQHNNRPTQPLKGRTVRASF

In the case of `CCN(C(=O)CCCCCO[N+](=O)[O-])[C@H]1C[C@H](C)S(=O)(=O)c2sc(S(N)(=O)=O)cc21`, the concentration in solution in series [1] (solubility) was 0.25 mg/mL (≈ 0.517 mM). Besides, in series [2], the concentration for a half-maximal effect (EC50) – broadly, the concentration giving half of the maximal effect – was 4.25 µM.

With `CCN(C(=O)OCC(CO[N+](=O)[O-])O[N+](=O)[O-])[C@H]1C[C@H](C)S(=O)(=O)c2sc(S(N)(=O)=O)cc21` (stereo not given in full), a half-maximal response in series [2] (EC50) required 0.37 µM.

For the compound `CCN(C(=O)OCCCO[N+](=O)[O-])[C@H]1C[C@H](C)S(=O)(=O)c2sc(S(N)(=O)=O)cc21`, in series [1], the concentration in solution (solubility) was 15.1 mg/mL (≈ 32 mM). In series [2], this compound displayed an EC50 of 2.05 µM.

Consider `O=[N+]([O-])O[C@@H]1CO[C@H]2[C@@H]1OC[C@@H]2O` [ISOSORBIDE MONONITRATE], for which the solubility – broadly, the dissolved amount per volume that the medium holds – in series [1] is below 20 mg/mL. For the same compound, the Ki entry in series [3], in series [4] and in series [5] was “Not Active” throughout. Moreover, the midpoint of the response in series [2], the EC50, lay at 10.8 µM.

These data come from ChEMBL document CHEMBL1156128, “Nitric oxide-donating carbonic anhydrase inhibitors for the treatment of open-angle glaucoma” (Bioorg Med Chem Lett, 2009).
